Experimental data reported in paper PMC11784359 (Antimicrobial Agents and Chemotherapy, 2024).
In brackets after ≈: the same amount, converted by molar mass. Several values for one entry are separate records, joined by “and”; a condition that tells them apart may be missing. Equal entries are not always repeated. Where two headings read alike, the source gives them in different places. Marks after values point to notes of the source that are not given here.

Columns and labels:
[1] = system: Burkholderia pseudomallei; test: microbe, parasite or virus in culture; type: cell-based
[2] = system: Escherichia coli ATCC 25922; test: microbe, parasite or virus in culture; type: cell-based
[3] = system: Pseudomonas aeruginosa ATCC 27853; test: microbe, parasite or virus in culture; type: cell-based
[4] = system: Staphylococcus aureus ATCC 29213; test: microbe, parasite or virus in culture; type: cell-based
[5] = system: B. pseudomallei strain K96243; set-up: species or system Burkholderia pseudomallei; conditions: in vivo
biothreat pathogens = type: cell-based
[6] = mouse, in vivo
[7] = mouse, in vivo; remark: listed apart in the source
[8] = system: Escherichia coli, Klebsiella pneumoniae, and Pseudomonas aeruginosa; conditions: cited from earlier work

## CC(C)(O/N=C(\C(=O)N[C@@H]1C(=O)N2C(C(=O)[O-])=C(C[n+]3ccccc3)CS[C@H]12)c1csc(N)n1)C(=O)O [Ceftazidime, ceftazidime, reference compound]
[1]
  MIC50: 2 µg/mL (≈ 3.66 µM)
  MIC90: 8 µg/mL (≈ 14.6 µM)
[1]; NCTC4845
  MIC: 2 µg/mL (≈ 3.66 µM)
[2]; Escherichia coli, ATCC25922
  MIC: 0.12 µg/mL (≈ 0.22 µM)
[3]; Pseudomonas aeruginosa, ATCC27853
  MIC: 1 µg/mL (≈ 1.83 µM)
[4]; Staphylococcus aureus, ATCC29213
  MIC: 8 µg/mL (≈ 14.6 µM)
[5]
  Survival log-rank (Mantel–Cox) test P: <0.0001^a
  day average body weight started to decline again: 11 days
  day mean body weight began to recover: > 5 days
  survival at the end of the 29-day observation phase: 20%
  survival during the treatment phase: 70%

## C[C@@](O)(C(F)F)[C@H](NC(=O)c1ccc(C#CC#CC2CC2)cc1)C(=O)NO [LPC-233]
[2]
  MIC: ≤0.008 µg/mL
[3]
  MIC: 0.25 µg/mL (≈ 0.664 µM)
[4]
  MIC: >16 µg/mL
[5]
  P, rescue of mice from infection in comparison with the vehicle: < 0.0001
  average body weight after recovery: maintained a steady average weight to the end of the study
  bacterial burden in the lungs at study termination compared to ceftazidime-treated animals: reduction of CFUs in the lungs
  day average body weight declined again: 15 days and 25 days
  day mean body weight began to recover (turning point): 4 days and 2 days
  final survival rate at the end of the observation period: 60% and 80% and 90%
  median time to death: 6.3 days
  recovery of average body weight: did not recover
  survival: did not support survival
  survival during the treatment phase: 100%
[5]; 30 mg/kg
  P range, survival/times to death versus the ceftazidime group: 0.001–0.05
  time following the last dose without deaths: 15 days
[5]; 90 mg/kg
  Survival log-rank (Mantel–Cox) test P: 0.5
[5]; ip, 90 mg/kg
  Survival log-rank (Mantel–Cox) test P: <0.0001^a and 0.009^a
[5]; po, 10 mg/kg
  Survival log-rank (Mantel–Cox) test P: <0.0001^a and 0.008^a
[5]; po, 30 mg/kg
  Survival log-rank (Mantel–Cox) test P: <0.0001^a and 0.05^a
[5]; po, 90 mg/kg
  Survival log-rank (Mantel–Cox) test P: <0.0001^a and 0.001^a
Biothreat pathogens
  MIC90 values for biothreat pathogens, folds lower than previous compounds such as ACHN-975: 4–8 folds
[6]; 30 mg/kg
  concentration of the drug in ELF samples: 100 to 400 ng/mL
[6]; 100 mg/kg
  increase in AUC, 100 mg/kg IP compared to oral 100 mg/kg: 2 fold
  increase in Cmax, 100 mg/kg IP compared to oral 100 mg/kg: 2 fold
[6]; ip, 100 mg/kg
  Inf fT > MIC (free time above MIC): ≥6 h
[6]; po, 10 mg/kg
  Inf fT > MIC (free time above MIC): ≥6 h
[6]; po, 30 mg/kg
  Inf fT > MIC (free time above MIC): ≥6 h
[6]; po, 100 mg/kg
  Inf fT > MIC (free time above MIC): ≥6 h
[7]
  Clearance: 14.7 mL/min/kg
  period plasma concentration remained above MIC90: ≥ 24 h
[7]; 100 mg/kg
  AUCELF (0–48 h): 334.6 µg·h/mL
  AUCplasma (0–48 h): 398.6 µg·h/mL
  ELF penetration (AUCELF/AUCplasma, 0–48 h): 83.9%
[8]
  predicted MIC shift based on plasma protein unbound fraction: ~ 30 fold
  shift of MIC values in the presence of 50% mouse plasma: 4–9 fold
